Experimental findings from patent publication US20220135590A1, “ISOXAZOLE COMPOUNDS FOR THE TREATMENT OF DISEASES ASSOCIATED WITH HBV INFECTIONS” (Janssen Science Ireland Unlimited Company, priority 2017, published 2022) are described below.

Broadly, the EC50 is the concentration that produces a half-maximal response.

The subject of the test is HBV. Description: HBV replication inhibition assay (BDNA assay) in HepG2.2.15 cells. Type of test: cell-based. The note with it: Hepatitis B virus, 144 h, 6 days incubation, encapsidated HBV DNA in supernatant by branched DNA QuantiGene assay. How it is done: HBV Replication Inhibition Assay
HBV replication inhibition by the disclosed compounds were determined in cells infected or transfected with HBV or cells with stably integrated HBV, such as HepG2.2.15 cells (Sells et al. 1987). In this example, HepG2.2.15 cells were maintained in cell culture medium containing 10% fetal bovine serum (FBS), Geneticin, L-glutamine, penicillin and streptomycin. HepG2.2.15 cells were seeded in 96-well plates at a density of 40,000 cells/well and were treated with serially diluted compounds at a final DMSO concentration of 0.5% either alone or in combination by adding drugs in a checker box format. Cells were incubated with compounds for three days, after which medium was removed and fresh medium containing compounds was added to cells and incubated for another three days. At day 6, supernatant was removed and treated with DNase at 37° C. for 60 minutes, followed by enzyme inactivation at 75° C. for 15 minutes. Encapsidated HBV DNA was released from the virions and covalently linked HBV polymerase by incubating in lysis buffer (Affymetrix QS0010) containing 2.5 μg proteinase K at 50° C. for 40 minutes. HBV DNA was denatured by addition of 0.2 M NaOH and detected using a branched DNA (BDNA) QuantiGene assay kit according to manufacturer recommendation (Affymetrix). HBV DNA levels were also quantified using qPCR, based on amplification of encapsidated HBV DNA extraction with QuickExtraction Solution (Epicentre Biotechnologies) and amplification of HBV DNA using HBV specific PCR probes that can hybridize to HBV DNA and a fluorescently labeled probe for quantitation. In addition, cell viability of HepG2.2.15 cells incubated with test compounds alone or in combination was determined by using CellTitre-Glo reagent according to the manufacturer protocol (Promega). The mean background signal from wells containing only culture medium was subtracted from all other samples, and percent inhibition at each compound concentration was calculated by normalizing to signals from HepG2.2.15 cells treated with 0.5% DMSO using equation E1.
% inhibition (DMSOave−Xi)DMSOave×100% E1:
where DMSOave is the mean signal calculated from the wells that were treated with DMSO control (0% inhibition control) and X^1 is the signal measured from the individual wells. EC50 values, effective concentrations that achieved 50% inhibitory effect, were determined by non-linear fitting using Graphpad Prism software (San Diego, Calif.) and equation E2.
Y=Ymin+(Ymax−Ymin)/(1+10(Log EC50−X)×HillSlope) E2:
where Y represents percent inhibition values and X represents the logarithm of compound concentrations.
Selected disclosed compounds were assayed in the HBV replication assay (BDNA assay), as described above, and a representative group of these active compounds is shown in Table 3. […] In Table 3, “A” represents 1 nM<EC50≤100 nM; “B” represents 100 nM<EC50≤1,000 nM; and “C” represents 1,000 nM<EC50≤10,000 nM.

As for `C[C@H]1Cc2onc(-c3ncccn3)c2CN1C(=O)Nc1ccnc(C(F)F)c1F` [Example 6, (S)—N-(2-(Difluoromethyl)-3-fluoropyridin-4-yl)-6-methyl-3-(pyrimidin-2-yl)-6,7-dihydroisoxazolo[4,5-c]pyridine-5(4H)-carboxamide], the EC50 is 1 to 100 nM.

`C[C@H]1Cc2noc(-c3ncccn3)c2CN1C(=O)Nc1ccc(F)c(C#N)c1` [Example 1, (S)—N-(3-Cyano-4-fluorophenyl)-6-methyl-3-(pyrimidin-2-yl)-6,7-dihydroisoxazolo[4,3-c]pyridine-5(4H)-carboxamide]: the EC50 was in the range of 1 to 100 nM.

On to `CC1(C)CN(C(=O)Nc2ccc(F)c(C(F)(F)F)c2)Cc2c(-c3ncccn3)noc21` [Example 14, N-(4-Fluoro-3-(trifluoromethyl)phenyl)-7,7-dimethyl-3-(pyrimidin-2-yl)-6,7-dihydroisoxazolo[4,5-c]pyridine-5(4H)-carboxamide], for which the EC50 lay within 1000 to 10000 nM.

For the compound `CC1(C)CN(C(=O)Nc2ccc(F)c(C(F)(F)F)c2)Cc2c1noc2-c1ncccn1` [Example 10, N-(4-Fluoro-3-(trifluoromethyl)phenyl)-7,7-dimethyl-3-(pyrimidin-2-yl)-6,7-dihydroisoxazolo[4,3-c]pyridine-5(4H)-carboxamide], the EC50 was in the range of 100 to 1000 nM.

For the compound `C[C@H]1Cc2onc(-c3ncccn3)c2CN1C(=O)Nc1ccc(F)c(C(F)(F)F)c1` [Example 7, (S)—N-(4-Fluoro-3-(trifluoromethyl)phenyl)-6-methyl-3-(pyrimidin-2-yl)-6,7-dihydroisoxazolo[4,5-c]pyridine-5(4H)-carboxamide], the EC50 fell in the range of 100 to 1000 nM.

With `CC1(C)CN(C(=O)Nc2ccnc(C(F)F)c2F)Cc2c1noc2-c1ncccn1` [Example 11, N-(2-(Difluoromethyl)-3-fluoropyridin-4-yl)-7,7-dimethyl-3-(pyrimidin-2-yl)-6,7-dihydroisoxazolo[4,3-c]pyridine-5(4H)-carboxamide], the EC50 lay in the range of 100 to 1000 nM.

Take `CC1(C)CN(C(=O)Nc2ccc(F)c(C#N)c2)Cc2c(-c3ncccn3)noc21` [Example 13, N-(3-Cyano-4-fluorophenyl)-7,7-dimethyl-3-(pyrimidin-2-yl)-6,7-dihydroisoxazolo[4,5-c]pyridine-5(4H)-carboxamide]: the EC50 was 100 to 1000 nM.

`C[C@H]1Cc2noc(-c3ncccn3)c2CN1C(=O)Nc1ccnc(Br)c1F` [Example 4, (S)—N-(2-Bromo-3-fluoropyridin-4-yl)-6-methyl-3-(pyrimidin-2-yl)-6,7-dihydroisoxazolo[4,3-c]pyridine-5(4H)-carboxamide]: the EC50 was 1 to 100 nM.

As to `C[C@H]1Cc2noc(-c3ncccn3)c2CN1C(=O)Nc1ccc(F)c(C(F)(F)F)c1` [Example 3, (S)—N-(4-Fluoro-3-(trifluoromethyl)phenyl)-6-methyl-3-(pyrimidin-2-yl)-6,7-dihydroisoxazolo[4,3-c]pyridine-5(4H)-carboxamide], the EC50 lay within 1 to 100 nM.

As to `CC1(C)CN(C(=O)Nc2ccnc(Br)c2F)Cc2c(-c3ncccn3)noc21` [Example 16, N-(2-Bromo-3-fluoropyridin-4-yl)-7,7-dimethyl-3-(pyrimidin-2-yl)-6,7-dihydroisoxazolo[4,5-c]pyridine-5(4H)-carboxamide], the EC50 is 1 to 100 nM.

Take `C[C@H]1Cc2onc(-c3ncccn3)c2CN1C(=O)Nc1ccc(F)c(C#N)c1` [Example 5, (S)—N-(3-Cyano-4-fluorophenyl)-6-methyl-3-(pyrimidin-2-yl)-6,7-dihydroisoxazolo[4,5-c]pyridine-5(4H)-carboxamide]: the EC50 lay within 1 to 100 nM.

For `CC1(C)CN(C(=O)Nc2ccc(F)c(C#N)c2)Cc2c1noc2-c1ncccn1` [Example 9, N-(3-Cyano-4-fluorophenyl)-7,7-dimethyl-3-(pyrimidin-2-yl)-6,7-dihydroisoxazolo[4,3-c]pyridine-5(4H)-carboxamide], the EC50 fell in the range of 1 to 100 nM.

`CC1(C)CN(C(=O)Nc2ccnc(Br)c2F)Cc2c1noc2-c1ncccn1` [Example 12, N-(2-Bromo-3-fluoropyridin-4-yl)-7,7-dimethyl-3-(pyrimidin-2-yl)-6,7-dihydroisoxazolo[4,3-c]pyridine-5(4H)-carboxamide]: the EC50 was in the range of 1 to 100 nM.

Consider `C[C@H]1Cc2noc(-c3ncccn3)c2CN1C(=O)Nc1ccnc(C(F)F)c1F` [Example 2, (S)—N-(2-(Difluoromethyl)-3-fluoropyridin-4-yl)-6-methyl-3-(pyrimidin-2-yl)-6,7-dihydroisoxazolo[4,3-c]pyridine-5(4H)-carboxamide], for which the EC50 is 1 to 100 nM.

Consider `C[C@H]1Cc2onc(-c3ncccn3)c2CN1C(=O)Nc1ccnc(Br)c1F` [Example 8, (S)—N-(2-Bromo-3-fluoropyridin-4-yl)-6-methyl-3-(pyrimidin-2-yl)-6,7-dihydroisoxazolo[4,5-c]pyridine-5(4H)-carboxamide], for which the EC50 was 100 to 1000 nM.

`CC1(C)CN(C(=O)Nc2ccnc(C(F)F)c2F)Cc2c(-c3ncccn3)noc21` [Example 15, N-(2-(Difluoromethyl)-3-fluoropyridin-4-yl)-7,7-dimethyl-3-(pyrimidin-2-yl)-6,7-dihydroisoxazolo[4,5-c]pyridine-5(4H)-carboxamide]: the EC50 was in the range of 100 to 1000 nM.
